PMC6979384, “Characterization of the plant homeodomain (PHD) reader family for their histone tail interactions” (Epigenetics & Chromatin, 2020)

Columns and labels:
Experiment in all cases: Histone peptide microarray
Format in all cases: binding, human
PHF21A = details: GST-tagged PHF21A; histone peptide array; arrays performed twice, n of 4
Method in brief: (§1)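 Recombinant GST-PHD protein at 0.5 μM; 293-member modified histone peptide array; signals averaged from four repeats ± SD.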

CHD5 (PCC) = details: GST-tagged CHD5 (PCC = PHD + Dual Chromodomain); histone peptide array; arrays performed twice, n of 4
Method in brief: as §1

MORC3 (CW) = details: GST-tagged MORC3 (CW = CW-type Zn-finger); histone peptide array; arrays performed twice, n of 4
Method in brief: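 Binding read as mean relative signal from 4 replicates; microarray held 293 synthetic histone peptides with single or combinatorial PTMs. Each GST-tagged PHD reader was applied at 0.5 μM using the optimized Petell protocol.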

PHF8 = details: GST-tagged PHF8; histone peptide array; arrays performed twice, n of 4
Method in brief: as §1

ING2 = details: GST-tagged ING2; histone peptide array; arrays performed twice, n of 4
Method in brief: as §1

BPTF (PB) = details: GST-tagged BPTF (PB = PHD + Bromodomain); histone peptide array; arrays performed twice, n of 4
Method in brief: as §1

RAG2 = details: GST-tagged RAG2; histone peptide array; arrays performed twice, n of 4
Method in brief: as §1

ING3 = details: GST-tagged ING3; histone peptide array; arrays performed twice, n of 4
Method in brief: as §1

DPF2 (PPC2W2) = details: GST-tagged DPF2 (PPC2W2 = Dual PHD + C2W2-type Zn-finger); histone peptide array; arrays performed twice, n of 4
Method in brief: as §1

PHF2 = details: GST-tagged PHF2; histone peptide array; arrays performed twice, n of 4
Method in brief: as §1

PHF23 = details: GST-tagged PHF23; histone peptide array; arrays performed twice, n of 4
Method in brief: as §1

CHD5 (PPCC) = details: GST-tagged CHD5 (PPCC = Dual PHD + Dual Chromodomain); histone peptide array; arrays performed twice, n of 4
Method in brief: as §1

KDM5B (3) = details: GST-tagged KDM5B (3); histone peptide array; arrays performed twice, n of 4
Method in brief: as §1

BAZ2B = details: GST-tagged BAZ2B; histone peptide array; arrays performed twice, n of 4
Method in brief: as §1

AIRE (PP) = details: GST-tagged AIRE (PP); histone peptide array; arrays performed twice, n of 4
Method in brief: as §1

SP140L = details: GST-tagged SP140L; histone peptide array; arrays performed twice, n of 4
Method in brief: as §1

TRIM66 (PB) = details: GST-tagged TRIM66 (PB = PHD + Bromodomain); histone peptide array; arrays performed twice, n of 4
Method in brief: as §1

KDM5A (3) = details: GST-tagged KDM5A (3); histone peptide array; arrays performed twice, n of 4
Method in brief: as §1

ING4 = details: GST-tagged ING4; histone peptide array; arrays performed twice, n of 4
Method in brief: as §1

PHF13 = details: GST-tagged PHF13; histone peptide array; arrays performed twice, n of 4
Method in brief: as §1

KDM5A (1) = details: GST-tagged KDM5A (1); histone peptide array; arrays performed twice, n of 4
Method in brief: as §1

PHRF1 (RP) = details: GST-tagged PHRF1 (RP); histone peptide array; arrays performed twice, n of 4
Method in brief: as §1

CHD4 (PPCC) = details: GST-tagged CHD4 (PPCC = Dual PHD + Dual Chromodomain); histone peptide array; arrays performed twice, n of 4
Method in brief: as §1

KDM4C (TTP) = details: GST-tagged KDM4C (TTP = Tandem Tudor domain + PHD); histone peptide array; arrays performed twice, n of 4
Method in brief: as §1

ING5 = details: GST-tagged ING5; histone peptide array; arrays performed twice, n of 4
Method in brief: as §1

KDM7A = details: GST-tagged KDM7A; histone peptide array; arrays performed twice, n of 4
Method in brief: as §1

KDM5B (1) = details: GST-tagged KDM5B (1); histone peptide array; arrays performed twice, n of 4
Method in brief: as §1

DIDO1 = details: GST-tagged DIDO1; histone peptide array; arrays performed twice, n of 4
Method in brief: as §1

MLL5 = details: GST-tagged MLL5; histone peptide array; arrays performed twice, n of 4
Method in brief: as §1

TAF3 = details: GST-tagged TAF3; histone peptide array; arrays performed twice, n of 4
Method in brief: as §1

ING1 = details: GST-tagged ING1; histone peptide array; arrays performed twice, n of 4
Method in brief: as §1

## H3R2me1 + K4me2: H3 1-20
PHF21A
  Array Heatmap signal, PHF21A: 0.4826
CHD5 (PCC)
  Array Heatmap signal, CHD5 (PCC): 0.8739
MORC3 (CW)
  Array Heatmap signal, MORC3 (CW): 0.6321
PHF8
  Array Heatmap signal, PHF8: 0.4684
ING2
  Array Heatmap signal, ING2: 0.678
BPTF (PB)
  Array Heatmap signal, BPTF (PB): 0.3634
RAG2
  Array Heatmap signal, RAG2: 0.5456
ING3
  Array Heatmap signal, ING3: 0.5383
DPF2 (PPC2W2)
  Array Heatmap signal, DPF2 (PPC2W2): 0.7133
PHF2
  Array Heatmap signal, PHF2: 0.6699
PHF23
  Array Heatmap signal, PHF23: 0.6929
CHD5 (PPCC)
  Array Heatmap signal, CHD5 (PPCC): 0.5419
KDM5B (3)
  Array Heatmap signal, KDM5B (3): 0.6308
BAZ2B
  Array Heatmap signal, BAZ2B: 0.4449
AIRE (PP)
  Array Heatmap signal, AIRE (PP): 0.3934
SP140L
  Array Heatmap signal, SP140L: 0.3804
TRIM66 (PB)
  Array Heatmap signal, TRIM66 (PB): 0.6589
KDM5A (3)
  Array Heatmap signal, KDM5A (3): 0.6755
ING4
  Array Heatmap signal, ING4: 0.4775
PHF13
  Array Heatmap signal, PHF13: 0.6859
KDM5A (1)
  Array Heatmap signal, KDM5A (1): 0.4465
PHRF1 (RP)
  Array Heatmap signal, PHRF1 (RP): 0.5537
CHD4 (PPCC)
  Array Heatmap signal, CHD4 (PPCC): 0.6115
KDM4C (TTP)
  Array Heatmap signal, KDM4C (TTP): 0.4903
ING5
  Array Heatmap signal, ING5: 0.3522
KDM7A
  Array Heatmap signal, KDM7A: 0.344
KDM5B (1)
  Array Heatmap signal, KDM5B (1): 0.6024
DIDO1
  Array Heatmap signal, DIDO1: 0.7623
MLL5
  Array Heatmap signal, MLL5: 0.577
TAF3
  Array Heatmap signal, TAF3: 0.4954
ING1
  Array Heatmap signal, ING1: 0.6158
